According to PMC4086519, “Anti-Trichophyton Activity of Protocatechuates and Their Synergism with Fluconazole” (Evidence-based Complementary and Alternative Medicine : eCAM, 2014):
In brackets after ≈: the same amount, converted by molar mass.

Legend:
[1] = system: NOK (oral human keratinocyte) cell lines; test: Sulphorhodamine B cytotoxicity assay; assay type: cell-based; details: NOK cells, 24 hours
Experimental: The cytotoxicity of sixteen semisynthetic compounds derived from protocatechuic acid was assessed using a sulphorhodamine B assay in NOK (oral human keratinocyte) cell lines obtained from the American Type Culture Collection (Manassas, VA, USA). The strains were maintained in bottles appropriate for cell culture with keratinocyte serum free medium (Gibco, Life Technologies) and incubated in standard conditions of 37°C and 5% CO2. Cell concentrations ranging from 2.5 to 5.0 × 10^4 cells/mL were used for the formation of cell monolayers. The concentrations of pure substances were kept in contact with the cells for 24 hours. After the incubation period, the cells were treated with the sulphorhodamine B reagent (Sigma-Aldrich, St. Louis, MO, USA) as previously described by Skehan et al., with some modifications.

Trichophyton rubrum [2] = test: Minimum fungicide concentration (MFC); assay type: cell-based
Experimental: (§1) A qualitative analysis of the fungal viability was performed by transferring a portion of the wells to a plate with Sabouraud (Difco, BD Biosciences) medium and incubating it at 35°C for the time determined for each fungal agent. […] A visual reading was performed to confirm the death or growth inhibition provided by fluconazole and the sixteen semisynthetic substances derived from protocatechuic acid.

[3] = system: Trichophyton mentagrophytes; test: Minimum fungicide concentration (MFC); assay type: cell-based
Experimental: as §1

Trichophyton rubrum [4] = test: Checkerboard synergism assay with fluconazole; assay type: cell-based; details: for MIC, substances alone: Tr1, checkerboard, 168 hours
Experimental: (§2) The drug activity was assessed using a checkerboard method derived from a standardised procedure established by the National Committee for Clinical Laboratory Standards ([…]-A2). Briefly, the test was performed on the same medium used for susceptibility testing. Volumes of 50 μL of each drug in a concentration four times the final concentration were dispensed in 96-well plates ([…], Switzerland). To each well, 100 μL of the fungal suspension was added to produce a final concentration of 5.0 × 10^3 CFU/mL. As a negative control, we used 200 μL of RPMI, while as a positive control, we used 100 μL of RPMI medium with 100 μL of inoculum. The plates were incubated at 35°C, and the reading was completed after 168 hours. We conducted visual and spectrophotometric readings at 490 nm. To determine the effect of combinatorial fractions, we calculated the fractional inhibitory concentration (FIC). The FIC was calculated by taking the MIC of the substance in combination/MIC of the substance alone. The sum of the fractional inhibitory concentration (FIC) of each substance consists of the fractional inhibitory concentration index: (the MIC of drug A in combination/the MIC of drug A alone) + (the MIC of drug B in combination/the MIC of drug B alone).

[5] = system: Trichophyton mentagrophytes; test: Checkerboard synergism assay with fluconazole; assay type: cell-based; details: for MIC, substances alone: checkerboard, 168 hours
Experimental: as §2

Trichophyton rubrum [6] = test: Broth microdilution MIC (CLSI M38-A2, modified); assay type: cell-based; details: 35°C, 7 days
Experimental: (§3) To evaluate its antifungal activity, […] of dermatophytes were tested: two clinical strains of Trichophyton rubrum (Tr1 and Tr2), Trichophyton rubrum ATCC MYA 3108, two clinical strains of Trichophyton mentagrophytes (Tm1 and Tm2), and Trichophyton mentagrophytes ATCC 40131 (Tm3). The microorganisms were obtained from the collection of the Clinical Mycology Laboratory of the Department of Clinical Analyses at the School of Pharmaceutical Sciences of Universidade Estadual Paulista (UNESP). The strains were cultivated on Sabouraud dextrose agar (Difco, BD Biosciences) and incubated at 28°C for 7-15 days. For all experiments, the strains were cultivated on Potato Dextrose Agar (Difco, BD Biosciences) and incubated at 28°C as described above or until sporulation. The dilution of the synthetic compounds was performed with DMSO (Synth, Diadema, Sao Paulo, Brazil) as described by Scorzoni et al.. […] The antifungal drugs were diluted according to the CLSI […]-A2 document. Stock solutions of Fluconazole (Sigma-Aldrich, St. Louis, MO, USA) were prepared, considering its power. Serial twofold dilutions were prepared according to the recommendations of Zhang and collaborators, with some modifications. The antifungal activity tests were performed using the broth microdilution method as described in […]-A2, a document produced by the Clinical and Laboratory Standards Institute (CLSI, 2008), with modifications. The medium used was RPMI 1640 with L-glutamine (Sigma-Aldrich, St. Louis, MO, USA) buffered to pH 7.0 with 0.165 M morpholinepropanesulfonic acid (MOPS) (Sigma-Aldrich, St. Louis, MO, USA), supplemented with 2% glucose. […] The suspension of conidia was then transferred to small sterile test tubes where they remained for 40 minutes to separate the microconidia, which were lighter and therefore present in the supernatant. […] These suspensions were diluted in RPMI 1640 (Sigma-Aldrich, St. […] Positive (100 μL of RPMI medium with 100 μL of inoculum) and negative (200 μL of RPMI) controls were included in all experiments. The plates were incubated with agitation at 35°C for 7 days. The MIC reading was performed by spectrophotometry at 490 nm.

[7] = system: Trichophyton mentagrophytes; test: Broth microdilution MIC (CLSI M38-A2, modified); assay type: cell-based; details: 35°C, 7 days
Experimental: as §3

Saccharomyces cerevisiae = system: Saccharomyces cerevisiae; design: method as in PMID 14592492; details: cited from earlier work
[8] = Tr1, T. rubrum clinical isolate
[9] = Tr2, T. rubrum clinical isolate
[10] = Tm3, T. mentagrophytes ATCC 40131

| SMILES | Cytotoxicity IC50 [1] [mg/L] | MFC (Trichophyton rubrum [2]; [8]) [mg/L] | MFC (Trichophyton rubrum [2]; [9]) [mg/L] | MFC (Trichophyton rubrum [2]; Tr3, T. rubrum ATCC MYA 3108) [mg/L] | MFC ([3]; Tm1, clinical isolate) [mg/L] | MFC ([3]; Tm2, clinical isolate) [mg/L] | MFC [3, 10] [mg/L] | FIC index (Trichophyton rubrum [4]) | MIC of the protocatechuate, substances combined (Trichophyton rubrum [4]) [mg/L] | association type (in words) (Trichophyton rubrum [4]) | MIC, substances alone (Trichophyton rubrum [4]) [mg/L] | FIC index [5] | MIC of the protocatechuate, substances combined [5] [mg/L] | association type (in words) [5] | MIC, substances alone ([5]; Tm1) [mg/L] | MIC, substances alone ([5]; Tm3 (ATCC 40131)) [mg/L] | MIC (Trichophyton rubrum [6]; [8]) [mg/L] | MIC (Trichophyton rubrum [6]; [9]) [mg/L] | MIC (Trichophyton rubrum [6]; Tr3, T. rubrum ATCC MYA 3108) [mg/L] | MIC ([7]; Tm1, clinical isolate) [mg/L] | further results |
| --- | --- | --- | --- | --- | --- | --- | --- | --- | --- | --- | --- | --- | --- | --- | --- | --- | --- | --- | --- | --- | --- |
| CCCCCCOC(=O)c1ccc(O)c(O)c1 [Protocatechuate hexyl, hexyl protocatechuate] | 66.5 | 3.9 (≈ 16.4 µM) | 3.90 (≈ 16.4 µM) | 3.9 (≈ 16.4 µM) | 3.90 (≈ 16.4 µM) | 3.9 (≈ 16.4 µM) | 7.80 (≈ 32.7 µM) | 1.1 | 0.48 | indifferent | 3.9 | 0.72 | 0.03 | additive | 1.9 | 3.9 | 3.9 (≈ 16.4 µM) | 1.95 (≈ 8.18 µM) | 3.9 (≈ 16.4 µM) | 1.95 (≈ 8.18 µM) | reduction in the MIC of the protocatechuate (Trichophyton rubrum [4]): 8.125 times; MIC ([7]; Tm2, clinical isolate): 3.9 mg/L (≈ 16.4 µM); MIC [7, 10]: 3.90 mg/L (≈ 16.4 µM) |
| CCCCCCCCCOC(=O)c1ccc(O)c(O)c1 [Protocatechuate nonyl, nonyl protocatechuate] | 52.1 | 1.95 (≈ 6.96 µM) | 3.9 (≈ 13.9 µM) | 3.90 (≈ 13.9 µM) | 3.9 (≈ 13.9 µM) | 3.9 (≈ 13.9 µM) | 3.9 (≈ 13.9 µM) | 1.0 | 0.03 | additive | 1.9 | 1.0 | 0.03 | additive | 3.9 | 3.9 | 1.95 (≈ 6.96 µM) | 3.9 (≈ 13.9 µM) | 1.95 (≈ 6.96 µM) | 3.9 (≈ 13.9 µM) | reduction in the MIC of the protocatechuate (Trichophyton rubrum [4]): 63.33 times; MIC of fluconazole, substances combined [5]: 0.5 mg/L; reduction in the MIC of the protocatechuate [5]: 130 fold; MIC ([7]; Tm2, clinical isolate): 3.9 mg/L (≈ 13.9 µM); MIC [7, 10]: 3.9 mg/L (≈ 13.9 µM) |
| CCCCCCCCOC(=O)c1ccc(O)c(O)c1 [Protocatechuate octyl, octyl protocatechuate] | 54.0 | 1.95 (≈ 7.32 µM) | 7.8 (≈ 29.3 µM) | 1.95 (≈ 7.32 µM) | 3.90 (≈ 14.6 µM) | 1.95 (≈ 7.32 µM) | 3.9 (≈ 14.6 µM) | 1.0 | 0.06 | additive | 1.9 | 0.72 | 0.03 | additive | 1.9 | 3.9 | 1.95 (≈ 7.32 µM) | 7.8 (≈ 29.3 µM) | 0.97 (≈ 3.64 µM) | 1.95 (≈ 7.32 µM) | reduction in the MIC of the protocatechuate (Trichophyton rubrum [4]): 31.66 times; fungicidal activity (Saccharomyces cerevisiae): fungicidal activity; MIC ([7]; Tm2, clinical isolate): 1.95 mg/L (≈ 7.32 µM); MIC [7, 10]: 3.9 mg/L (≈ 14.6 µM) |
| CCCCCOC(=O)c1ccc(O)c(O)c1 [Protocatechuate pentyl, pentyl protocatechuate] | 57.0 | 7.8 (≈ 34.8 µM) | 7.8 (≈ 34.8 µM) | 7.8 (≈ 34.8 µM) | 15.6 (≈ 69.6 µM) | 7.8 (≈ 34.8 µM) | 7.8 (≈ 34.8 µM) | 1.0 | 7.8 | additive | 7.8 | 1.0 | 0.03 | additive | 3.9 | 7.8 | 7.8 (≈ 34.8 µM) | 7.8 (≈ 34.8 µM) | 7.8 (≈ 34.8 µM) | 3.90 (≈ 17.4 µM) | MIC of fluconazole, substances combined (Trichophyton rubrum [4]): 0.12 mg/L; reduction in the MIC of fluconazole (Trichophyton rubrum [4]): 16.66 times; MIC of fluconazole, substances combined [5]: 0.5 mg/L; reduction in the MIC of the protocatechuate [5]: 130 fold; MIC ([7]; Tm2, clinical isolate): 7.8 mg/L (≈ 34.8 µM); MIC [7, 10]: 7.8 mg/L (≈ 34.8 µM) |
